Measured values from PubChem BioAssay (NCI).
Where “and” joins values, the source holds several entries; their conditions need not be identical. Identical values can stand only once.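 All cell lines were grown in 96-well plates and treated with compound for 48 hours. GI50 marks 50% less growth. TGI: concentration producing complete growth inhibition.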

Columns and labels:
Assay in all cases: inhibition of tumour cell growth, NCI panel, 48 h
T-47D breast = tested on: T-47D breast
MDA-MB-435 = tested on: MDA-MB-435
LOX IMVI melanoma = tested on: LOX IMVI melanoma
SNB-75 CNS = tested on: SNB-75 CNS
A549 NSCLC = tested on: A549 NSCLC
HCC-2998 colon = tested on: HCC-2998 colon
786-0 renal = tested on: 786-0 renal
M14 melanoma = tested on: M14 melanoma
HL-60(TB) leukemia = tested on: HL-60(TB) leukemia
SW-620 colon = tested on: SW-620 colon

Compound | GI50 (T-47D breast) | TGI (T-47D breast) | GI50 (MDA-MB-435) | TGI (MDA-MB-435) | GI50 (LOX IMVI melanoma) | TGI (LOX IMVI melanoma) | GI50 (SNB-75 CNS) | TGI (SNB-75 CNS) | GI50 (A549 NSCLC) | TGI (A549 NSCLC) | GI50 (HCC-2998 colon) | TGI (HCC-2998 colon) | GI50 (786-0 renal) | TGI (786-0 renal) | GI50 (M14 melanoma) | TGI (M14 melanoma) | GI50 (HL-60(TB) leukemia) [µM] | TGI (HL-60(TB) leukemia) [µM] | GI50 (SW-620 colon) | TGI (SW-620 colon)
COc1ccc(/C=C/C(=O)/C=C(/C=C/c2ccc(OC)c(OC)c2)OB(F)F)cc1OC | 0.805 µM | > 100 µM | 0.522 µM | 3.89 µM | 0.808 µM | 2.19 µM | 1.02 µM | 8.06 µM | 2.24 µM | 7.62 µM | 2.02 µM | 4.17 µM | 1.07 µM | 2.93 µM | 0.519 µM | 3.55 µM | 0.495 | 3.64 | 0.373 µM | 2.33 µM
O=C(CCl)Nc1ccccc1SCc1cc(Cl)cc2c1OCOC2 | 9.82 µM | 45.2 µM | 2.87 µM | 11.1 µM | 2.16 µM | 5.1 µM | 8.55 µM | 23.3 µM | 20.2 µM | 45.1 µM | 16.6 µM | 31.5 µM | 12.6 µM | 26.4 µM | 4.68 µM | 16.8 µM | 2.15 | 4.31 | 3.73 µM | 17.1 µM
Clc1ccc(N2COOC3(OOC2)C2CC4CC(C2)CC3C4)cc1 | 4.97 µM | > 100 µM | 1.61 µM | 13.2 µM | 0.15 µM | 2.44 µM | 10.8 µM | 55.2 µM | 5.18 µM | > 100 µM | > 24.4 µM | > 100 µM | 1.21 µM | 5.73 µM | 1.48 µM | > 100 µM | 1.55 | 8.27 | – | > 57.8 µM
CCNCCNc1cc(-c2ccc(Cl)cc2)c(C#N)c2nc3ccccc3n12 | 1.74 µM | 3.86 µM | 1.58 µM | 2.95 µM | 1.52 µM | 2.93 µM | 1.33 µM | 2.67 µM | 1.92 µM | 3.62 µM | 1.84 µM | 3.4 µM | 1.49 µM | 2.87 µM | 1.88 µM | 3.38 µM | 1.65 | 3.65 | 1.52 µM | 3.14 µM
O=C1CC2(CCCc3sccc32)C(=O)N1 (configuration not stated) | – | > 100 µM | – | > 100 µM | – | > 100 µM | – | > 100 µM | – | > 100 µM | – | > 100 µM | – | > 100 µM | – | > 100 µM | – | > 100 | – | > 100 µM
Cc1c(C(=O)CCl)c(=O)n(-c2ccccc2)n1C | 2.43 µM | 17.6 µM | 2.57 µM | 11.5 µM | 3.27 µM | 14.3 µM | 10.9 µM | 29.5 µM | 11.6 µM | 27.4 µM | 12.9 µM | 26.6 µM | 10.7 µM | 24.3 µM | 3.13 µM | 15.4 µM | 3.8 | 13.5 | 2.7 µM | 8.54 µM
Cc1c(C(=O)N/N=C/c2ccc(O)cc2)nnn1-c1ccnc2c(C(F)(F)F)cccc12 | 92.5 µM | > 100 µM | > 100 µM | > 100 µM | 46.8 µM | > 100 µM | 19.1 µM | 40 µM | > 100 µM | > 100 µM | > 100 µM | > 100 µM | 44.4 µM | > 100 µM | > 100 µM | > 100 µM | > 100 | > 100 | > 100 µM | > 100 µM
COc1ccc(/C=C(\C#N)n2nnc3cc(Cl)ccc32)cc1 | 0.407 µM | – | 0.124 µM | 0.342 µM | 0.887 µM | 9.4 µM | 0.193 µM | 0.983 µM | 0.714 µM | > 100 µM | 1.87 µM | 8.14 µM | 0.709 µM | 8.61 µM | 0.373 µM | 6.63 µM | 0.327 | > 100 | 0.351 µM | > 100 µM
c1ccc(Oc2c3ccccc3nc3ccccc23)cc1 | 2.81 µM | 10.9 µM | 1.77 µM | 6.16 µM | 1.73 µM | 11.8 µM | 3.49 µM | 14.2 µM | 4.62 µM | 27 µM | 2.87 µM | 7.97 µM | 3.08 µM | 10.7 µM | 3.4 µM | 10.7 µM | 0.541 | 5.79 | 1.64 µM | 17.5 µM
CC1/C=C/C=C/CC/C=C/C=C/C=C/C=C/C(OC2OC(C)C(O)C(N)C2O)CC2OC(CC(O)C(O)CCC(O)CC(O)CC(O)CC(=O)OC(C)C(C)C1O)CC(O)C2C(=O)O (configuration not stated) | 59.8 µg/mL | > 100 µM and 150 µg/mL | 28.1 µg/mL | 31.9 µM and 50.1 µg/mL | 24.1 µg/mL | 33.1 µM and 47.9 µg/mL | 58.2 µg/mL | 40.6 µM and 150 µg/mL | 24.5 µg/mL | 33 µM and 46.3 µg/mL | 19.1 µg/mL | 30.8 µM and 44.6 µg/mL | 25.8 µg/mL | 31.3 µM and 50.1 µg/mL | 27.8 µg/mL | 34.9 µM and 48.8 µg/mL | – | 45.1 | 25.4 µg/mL | 42.2 µM and 46 µg/mL
COc1cc(/C=C2\CC(C)CC3C2=NN(c2ccccc2)C3c2cc(OC)c(OC)c(OC)c2)cc(OC)c1OC (configuration not stated) | 4.07 µM | 31.7 µM | 8.53 µM | 47.7 µM | 9.69 µM | 27.8 µM | 25.4 µM | 87.5 µM | 14.9 µM | > 100 µM | 17.9 µM | 37.5 µM | 27 µM | > 100 µM | 14.9 µM | 52.1 µM | 6.48 | 90.6 | 10.7 µM | 22.5 µM
O=C1NC(=O)C2=C1CCC2O (configuration not stated) | – | > 100 µM | – | > 100 µM | – | > 100 µM | – | > 100 µM | – | > 100 µM | – | > 100 µM | – | > 100 µM | – | > 100 µM | – | > 100 | – | > 100 µM
